Where two headings read alike, the source gives them in different places.
What was measured:
[1] = target: T1, KAT5 (Homo sapiens, UniProt Q92993); assay: Inhibition of human KAT enzymes, radioisotope method: KAT5; type: biochemical; details: for Ki: KAT5 (full-length), radioisotope method; for KAT5/ KAT6A / KAT5/ KAT6B: selectivity, ratio of Ki
T1 construct: purchased BPS 79422
Source text: (§1) Test Example 2: Selective Inhibitory Effects of Test Compounds on Human KAT6 Enzymes (Radioisotope Method)
(§2) • 1. KAT6A (ACTIVE MOTIF, Cat. No. 81223) • 2. KAT5 (BPS, Cat. No. 79422) • 3. KAT7 (ACTIVE MOTIF, Cat. No. 31889) • 4. KAT6B (ACTIVE MOTIF, Cat. No. 81224) • 5. Acetyl coenzyme A, [Acetyl-^3H, 250 μCi (9.25 MBq](PEIRKIN4 ELMER, Cat. No. NET290250UC) • 6. Acetyl coenzyme A (CAYMVAN, Cat. No. 16160) • 7. 384-well Flashplate (Perkin Elmer, Cat. No. SMP410A001PK) • 8. Garcinol (MCE, Cat. No. HY-107569) • 9. Automatic microplate pipetting system (Precision, PRC384U, BioTek) • 10. Ultrasonic nanoliter liquid handling system (Echo 650 Liquid Handler, Echo 650, Labcyte) • 11. Centrifuge (Avanti J-15R, Beckman Coulter) • 12. Liquid scintillation counter (Microplate Counter, Microbeta2, Perkin Elmer)
(§3) • 1. For KAT6A and KAT7, a 1× assay buffer was prepared as follows: 10 mM Tris-HCl pH 8.0, 0.01% Tween-20, and 1 mM DTT; for KAT6B and KAT5, a 1× assay buffer was prepared as follows: 50 mM Tris-HCl pH 8.0, 0.05% Tween-20, and 1 mM DTT. • 2. Compound preparation: For KAT6A, KAT6B, and KAT7, the final concentration of the compounds started at 1 μM, followed by a 5-fold serial dilution across a total of 7 concentration gradients; for KAT5, the final concentration of the compounds started at 10 μM, followed by a 5-fold serial dilution across a total of 7 concentration gradients. • 3. Substrate reaction solution preparation: The mixed substrates of H4 peptide and [3H]acetyl coenzyme A at final concentrations were prepared using the respective 1× assay buffers, as shown in Table 4.
(§4) • 1. The enzyme solution was transferred to 384-well reaction plates at 10 μL/well. For each negative control well, 10 μL of the 1× assay buffer was transferred. The plates were then centrifuged at 1000 RPM for 1 min and incubated at room temperature for 15 min. • 2. The substrate reaction solution was added at 10 μL/well, and the plates were centrifuged at 1000 RPM for 1 min to start the reaction. • 3. The samples for KAT6A, KAT6B, KAT7, KAT8, and KAT5 were then incubated at room temperature for 60 min, 120 min, 45 min, 60 min, and 120 min, respectively. • 4. Stop solution preparation: A stop solution was prepared by diluting 50 µM cold Ac-CoA in 1× buffer. • 5. The stop solution was added at 10 μL/well, and the plates were centrifuged at […] for 1 min to stop the reaction. • 6. The mixtures in the reaction plates were transferred at 25 μL/well to new plates (Streptavidin FlashPlate HTS PLUS, High Capacity, 384-well). • 7. The plates were incubated at room temperature for at least 60 min and then • 8. read using MicroBeta2.
(§5) Raw data were obtained in EXCEL, and the inhibition rates were calculated:
(§6) [formula] [formula] • Max signal: reaction signal from enzyme and substrate; • Sample signal: signal from sample; • Min signal: signal from substrate only (negative control).
(§7) The inhibition rate data were imported into XLFit Excel, and IC50 values were obtained using formula (2):
(§8) [formula] [formula] • Top: value of the top plateau of the fitted regression curve; • Bottom: value of the bottom plateau of the fitted regression curve; • HillSlope: slope of the fitted regression curve.
(§9) The IC50 value was substituted into formula (3) to obtain the enzymatic activity inhibition constant Ki:
(§10) [formula] • [S]: substrate concentration; Km: Michaelis constant.

[2] = Pharmacokinetics in SD (Sprague Dawley) rats; type: in vivo; details: rat, plasma, female SD rats; for clearance: read-out: CL (clearance rate); for half-life: read-out: T1/2 (half-life) (converted); for Vd: read-out: Vdss (apparent volume of distribution); for bioavailability: read-out: F (bioavailability)
Method: Test Example 3: Determination of Pharmacokinetic Data of Compounds in SD (Sprague Dawley) Rats
The pharmacokinetic characteristics of some of the compounds of the present disclosure were evaluated by a pharmacokinetic experiment in SD rats.
Female SD rats aged 6-8 weeks from Shanghai Jihui Laboratory Animal Care Co., Ltd. were selected. The test animals were fasted overnight before administration, and feeding was resumed 4 h after administration. The compounds were dissolved in 5% DMSO+5% Tween 80+90% normal saline. For a single intravenous administration, the administration dose was 1 mg/kg, and the administration volume was 2 mL/kg. For a single intragastric administration, the administration dose was 2 mg/kg, and the administration volume was 10 mL/kg. Blood was collected at 0.083 h (for intravenous administration only), 0.25 h, 0.5 h, 1 h, 2 h, 4 h, 8 h, and 24 h after administration. At each indicated time point, about 150 μL of blood sample was collected from each rat via the vein and placed into an EDTA-K2 tube. Each sample was centrifuged (2000 g, 4° C., 5 min) within 15 min after sample collection to obtain plasma, which was then stored at −70° C. until analysis. The concentration of the corresponding test compound in the SD rat plasma was determined using UPLC-MS/MS.

[3] = target: T2, KAT6B (Homo sapiens, UniProt Q8WYB5); assay: Inhibition of human KAT enzymes, radioisotope method: KAT6B; type: biochemical; details: KAT6B (718-1008)
T2 construct: purchased ACTIVE MOTIF 81224
Source text: as §1, §2, §3, §4, §5, §6, §7, §8, §9, §10

[4] = target: T3, KAT7 (Homo sapiens, UniProt O95251); assay: Inhibition of human KAT enzymes, radioisotope method: KAT7; type: biochemical; details: for Ki: KAT7 (full-length), radioisotope method; for KAT7/ KAT6A / KAT7/ KAT6B: selectivity, ratio of Ki
T3 construct: purchased ACTIVE MOTIF 31889
Source text: as §1, §2, §3, §4, §5, §6, §7, §8, §9, §10

[5] = target: T4, KAT6A (Homo sapiens, UniProt Q92794); assay: Inhibition of human KAT enzymes, radioisotope method: KAT6A; type: biochemical; details: KAT6A (488-778)
T4 construct: purchased ACTIVE MOTIF 81223
Source text: as §1, §2, §3, §4, §5, §6, §7, §8, §9, §10

T3 sequence (O95251 whole entry): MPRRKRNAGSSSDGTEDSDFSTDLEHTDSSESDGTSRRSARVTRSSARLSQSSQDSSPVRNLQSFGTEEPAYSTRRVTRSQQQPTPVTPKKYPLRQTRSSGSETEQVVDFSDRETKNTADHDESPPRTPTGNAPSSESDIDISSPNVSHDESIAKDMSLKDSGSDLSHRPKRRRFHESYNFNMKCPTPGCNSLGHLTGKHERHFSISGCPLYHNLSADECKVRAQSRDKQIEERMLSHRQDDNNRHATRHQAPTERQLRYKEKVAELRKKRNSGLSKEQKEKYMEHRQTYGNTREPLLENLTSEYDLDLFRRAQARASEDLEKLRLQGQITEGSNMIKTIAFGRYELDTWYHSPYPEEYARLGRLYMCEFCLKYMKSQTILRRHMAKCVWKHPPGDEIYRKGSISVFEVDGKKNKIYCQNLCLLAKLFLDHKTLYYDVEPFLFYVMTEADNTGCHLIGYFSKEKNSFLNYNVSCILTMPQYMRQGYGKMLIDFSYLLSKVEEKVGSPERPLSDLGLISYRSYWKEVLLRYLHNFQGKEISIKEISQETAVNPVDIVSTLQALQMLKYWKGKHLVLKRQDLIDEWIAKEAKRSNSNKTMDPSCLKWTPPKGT
T2 sequence (Q8WYB5 whole entry): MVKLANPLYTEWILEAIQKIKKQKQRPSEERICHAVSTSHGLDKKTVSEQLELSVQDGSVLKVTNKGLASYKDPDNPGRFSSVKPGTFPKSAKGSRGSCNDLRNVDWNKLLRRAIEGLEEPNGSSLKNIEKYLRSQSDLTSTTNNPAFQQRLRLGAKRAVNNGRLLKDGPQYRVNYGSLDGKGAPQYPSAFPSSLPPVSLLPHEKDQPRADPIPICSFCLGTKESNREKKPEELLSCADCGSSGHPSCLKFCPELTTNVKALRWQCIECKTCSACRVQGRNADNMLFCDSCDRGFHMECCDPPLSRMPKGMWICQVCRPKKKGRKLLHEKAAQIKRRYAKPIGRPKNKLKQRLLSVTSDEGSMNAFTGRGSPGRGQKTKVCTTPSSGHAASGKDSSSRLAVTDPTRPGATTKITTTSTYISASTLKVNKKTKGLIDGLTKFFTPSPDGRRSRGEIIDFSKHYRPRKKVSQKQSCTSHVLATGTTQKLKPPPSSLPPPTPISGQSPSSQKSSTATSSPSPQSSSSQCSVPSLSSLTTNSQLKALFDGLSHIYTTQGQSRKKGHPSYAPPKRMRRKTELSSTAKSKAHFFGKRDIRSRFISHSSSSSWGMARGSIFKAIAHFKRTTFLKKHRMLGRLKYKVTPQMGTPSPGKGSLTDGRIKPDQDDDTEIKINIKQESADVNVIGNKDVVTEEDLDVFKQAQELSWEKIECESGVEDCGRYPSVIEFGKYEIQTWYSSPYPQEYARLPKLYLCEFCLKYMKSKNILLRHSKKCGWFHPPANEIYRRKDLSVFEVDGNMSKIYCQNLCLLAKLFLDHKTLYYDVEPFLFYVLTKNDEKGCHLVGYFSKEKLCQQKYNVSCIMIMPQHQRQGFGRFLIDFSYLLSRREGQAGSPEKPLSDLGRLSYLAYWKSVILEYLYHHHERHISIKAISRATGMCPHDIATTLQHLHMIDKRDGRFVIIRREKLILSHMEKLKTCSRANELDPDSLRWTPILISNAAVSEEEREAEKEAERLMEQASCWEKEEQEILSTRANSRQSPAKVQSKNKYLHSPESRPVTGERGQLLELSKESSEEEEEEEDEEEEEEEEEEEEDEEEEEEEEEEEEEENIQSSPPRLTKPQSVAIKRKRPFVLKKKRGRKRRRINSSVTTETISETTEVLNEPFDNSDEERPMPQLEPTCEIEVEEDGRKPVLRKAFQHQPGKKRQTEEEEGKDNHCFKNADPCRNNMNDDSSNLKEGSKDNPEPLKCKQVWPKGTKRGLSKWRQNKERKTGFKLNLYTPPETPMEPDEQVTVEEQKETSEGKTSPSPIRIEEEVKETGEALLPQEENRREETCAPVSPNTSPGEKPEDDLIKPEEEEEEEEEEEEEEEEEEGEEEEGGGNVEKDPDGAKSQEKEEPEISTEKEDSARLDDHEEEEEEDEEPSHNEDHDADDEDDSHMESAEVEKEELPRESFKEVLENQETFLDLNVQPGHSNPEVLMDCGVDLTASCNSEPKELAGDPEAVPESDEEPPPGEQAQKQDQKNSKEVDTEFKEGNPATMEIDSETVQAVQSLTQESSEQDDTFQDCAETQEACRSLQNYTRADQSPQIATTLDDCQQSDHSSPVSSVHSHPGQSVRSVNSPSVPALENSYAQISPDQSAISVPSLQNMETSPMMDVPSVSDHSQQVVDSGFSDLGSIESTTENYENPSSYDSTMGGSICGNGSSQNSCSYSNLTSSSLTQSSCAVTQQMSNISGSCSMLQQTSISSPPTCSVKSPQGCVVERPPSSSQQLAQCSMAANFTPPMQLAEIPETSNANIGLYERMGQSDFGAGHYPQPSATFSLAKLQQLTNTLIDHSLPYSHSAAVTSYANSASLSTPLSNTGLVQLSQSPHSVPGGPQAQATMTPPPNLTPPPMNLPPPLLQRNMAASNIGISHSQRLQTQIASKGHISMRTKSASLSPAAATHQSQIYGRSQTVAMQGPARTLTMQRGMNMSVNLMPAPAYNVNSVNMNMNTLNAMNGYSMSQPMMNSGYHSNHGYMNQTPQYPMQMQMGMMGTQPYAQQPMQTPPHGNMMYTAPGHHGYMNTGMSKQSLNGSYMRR
T4 sequence (Q92794 whole entry): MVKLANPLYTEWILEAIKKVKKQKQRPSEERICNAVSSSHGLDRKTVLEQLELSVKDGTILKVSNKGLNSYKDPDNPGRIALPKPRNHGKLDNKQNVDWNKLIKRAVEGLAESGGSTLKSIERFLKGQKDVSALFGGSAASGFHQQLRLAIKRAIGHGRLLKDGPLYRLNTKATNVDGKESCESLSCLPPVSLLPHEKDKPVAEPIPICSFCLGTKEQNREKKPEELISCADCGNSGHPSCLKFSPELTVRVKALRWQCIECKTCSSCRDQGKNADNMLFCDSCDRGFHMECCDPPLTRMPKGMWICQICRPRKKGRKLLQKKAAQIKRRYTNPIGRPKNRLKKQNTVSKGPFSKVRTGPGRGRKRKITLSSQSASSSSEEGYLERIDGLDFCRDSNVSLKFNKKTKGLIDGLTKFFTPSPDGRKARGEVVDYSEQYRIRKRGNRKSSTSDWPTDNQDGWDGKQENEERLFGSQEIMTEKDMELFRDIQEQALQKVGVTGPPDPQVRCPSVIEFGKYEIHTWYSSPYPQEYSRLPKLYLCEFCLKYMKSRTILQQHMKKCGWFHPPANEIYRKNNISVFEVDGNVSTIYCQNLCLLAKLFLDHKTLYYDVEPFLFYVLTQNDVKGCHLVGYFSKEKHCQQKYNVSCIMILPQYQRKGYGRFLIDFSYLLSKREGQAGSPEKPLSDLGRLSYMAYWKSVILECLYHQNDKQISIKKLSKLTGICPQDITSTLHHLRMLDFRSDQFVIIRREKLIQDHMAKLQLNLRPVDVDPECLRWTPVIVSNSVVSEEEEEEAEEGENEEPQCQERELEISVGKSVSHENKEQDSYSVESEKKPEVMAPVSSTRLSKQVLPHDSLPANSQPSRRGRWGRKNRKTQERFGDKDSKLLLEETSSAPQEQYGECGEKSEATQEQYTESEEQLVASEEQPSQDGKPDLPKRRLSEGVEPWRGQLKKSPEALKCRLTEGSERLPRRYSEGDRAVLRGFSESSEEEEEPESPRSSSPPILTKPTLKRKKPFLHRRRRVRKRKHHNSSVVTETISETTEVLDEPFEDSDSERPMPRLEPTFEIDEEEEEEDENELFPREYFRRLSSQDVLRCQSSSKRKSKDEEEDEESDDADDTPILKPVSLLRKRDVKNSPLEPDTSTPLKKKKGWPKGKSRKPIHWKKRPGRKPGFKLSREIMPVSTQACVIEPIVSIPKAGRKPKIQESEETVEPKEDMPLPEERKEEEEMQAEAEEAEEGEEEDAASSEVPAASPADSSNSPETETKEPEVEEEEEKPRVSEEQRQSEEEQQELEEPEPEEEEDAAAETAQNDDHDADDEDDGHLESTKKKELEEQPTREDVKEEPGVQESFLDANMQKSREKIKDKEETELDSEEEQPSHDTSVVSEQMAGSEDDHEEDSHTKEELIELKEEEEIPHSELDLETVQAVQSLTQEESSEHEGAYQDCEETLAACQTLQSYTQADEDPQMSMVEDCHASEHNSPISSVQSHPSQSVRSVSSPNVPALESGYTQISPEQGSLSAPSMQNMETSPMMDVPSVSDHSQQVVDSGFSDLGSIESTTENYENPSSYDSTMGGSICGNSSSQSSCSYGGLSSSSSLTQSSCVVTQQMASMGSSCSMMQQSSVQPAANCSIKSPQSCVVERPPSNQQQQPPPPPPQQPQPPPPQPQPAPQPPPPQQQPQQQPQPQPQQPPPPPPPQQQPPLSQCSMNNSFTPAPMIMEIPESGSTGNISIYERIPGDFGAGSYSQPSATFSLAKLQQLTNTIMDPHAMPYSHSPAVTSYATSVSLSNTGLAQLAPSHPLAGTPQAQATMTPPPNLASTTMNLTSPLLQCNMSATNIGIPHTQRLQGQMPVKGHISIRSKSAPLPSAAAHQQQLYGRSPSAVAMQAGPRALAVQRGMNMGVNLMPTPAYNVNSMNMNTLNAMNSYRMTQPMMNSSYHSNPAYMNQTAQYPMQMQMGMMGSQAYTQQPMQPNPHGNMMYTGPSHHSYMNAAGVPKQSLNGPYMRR

SMILES | Ki [1] [nM] | KAT5/ KAT6A [1] | KAT5/ KAT6B [1] | AUC(0-inf) ([2]; iv, i.v. 1 mg/kg) [ng·h/mL] | clearance ([2]; iv, i.v. 1 mg/kg) [mL/min/kg] | half-life ([2]; iv, i.v. 1 mg/kg) [h] | Vd ([2]; iv, i.v. 1 mg/kg) [L/kg] | AUC(0-inf) ([2]; po, p.o. 2 mg/kg) [ng·h/mL] | bioavailability ([2]; po, p.o. 2 mg/kg) [%] | half-life ([2]; po, p.o. 2 mg/kg) [h] | Ki [3] [nM] | Ki [4] [nM] | KAT7/ KAT6A [4] | KAT7/ KAT6B [4] | Ki [5] [nM]
COc1ccc2c(c1S(=O)(=O)Nc1noc3cc(Cn4cccn4)c(F)c(OC)c13)OCCC2=O [Compound 42, N-(6-((1H-Pyrazol-1-yl)methyl)-5-fluoro-4-methoxybenzo[d]isoxazol-3-yl)-7-methoxy-4-oxochromane-8-sulfonamide] | – | – | – | 10200 | 1.69 | 3.79 | 0.261 | 11300 | 55 | 3.31 | – | – | – | – | –
COc1ccc2c(c1S(=O)(=O)Nc1noc3cc(Cn4cccn4)c(F)c(OC)c13)OCC=C2 [Compound 101, N-(6-((1H-Pyrazol-1-yl)methyl)-5-fluoro-4-methoxybenzo[d]isoxazol-3-yl)-7-methoxy-2H-chromene-8-sulfonamide] | 79.6 | 379 | 122 | 48100 | 0.35 | 8.88 | 0.237 | 89100 | 92.5 | 9.21 | 0.65 | 7.39 | 35 | 11 | 0.21
COc1ccccc1S(=O)(=O)Nc1noc2cc(Cn3cccn3)cc(OC)c12 [PF-8144, reference compound] | 672 | 1159 | 130 | 28300 | 0.597 | 3.16 | 0.143 | 55500 | 98 | 3.79 | 5.18 | 85.7 | 148 | 17 | 0.58

Other lines, results leading:

Ki [1] [nM] | KAT5/ KAT6A [1] | KAT5/ KAT6B [1] | AUC(0-inf) ([2]; iv, i.v. 1 mg/kg) [ng·h/mL] | clearance ([2]; iv, i.v. 1 mg/kg) [mL/min/kg] | half-life ([2]; iv, i.v. 1 mg/kg) [h] | Vd ([2]; iv, i.v. 1 mg/kg) [L/kg] | AUC(0-inf) ([2]; po, p.o. 2 mg/kg) [ng·h/mL] | bioavailability ([2]; po, p.o. 2 mg/kg) [%] | half-life ([2]; po, p.o. 2 mg/kg) [h] | Ki [3] [nM] | Ki [4] [nM] | KAT7/ KAT6A [4] | KAT7/ KAT6B [4] | Ki [5] [nM] | SMILES
649 | 3243 | 721 | 22600 | 0.761 | 5.87 | 0.295 | 42800 | 94.7 | 6.73 | 0.9 | 40.6 | 203 | 45 | 0.2 | COc1ccc2c(c1S(=O)(=O)Nc1noc3cc(Cn4cccn4)c(F)c(OC)c13)OCCO2 [Compound 28, N-(6-((1H-Pyrazol-1-yl)methyl)-5-fluoro-4-methoxybenzo[d]isoxazol-3-yl)-6-methoxy-2,3-dihydrobenzo[b][1,4]dioxine-5-sulfonamide]
286 | 609 | 318 | 90700 | 0.185 | 8.57 | 0.119 | 187000 | 96 | 9.73 | 0.9 | 54.7 | 116 | 61 | 0.47 | COc1ccc2c(c1S(=O)(=O)Nc1noc3cc(Cn4cccn4)c(F)c(OC)c13)OCCN2C [Compound 109, N-(6-((1H-Pyrazol-1-yl)methyl)-5-fluoro-4-methoxybenzo[d]isoxazol-3-yl)-7-methoxy-4-methyl-3,4-dihydro-2H-benzo[b][1,4]oxazine-8-sulfonamide]
1850 | 4880 | 745 | 39200 | 0.462 | 17.2 | 0.608 | 97900 | 144 | 13 | 2.49 | 174 | 458 | 70 | 0.38 | COc1ccc2c(c1S(=O)(=O)Nc1noc3cc(Cn4cccn4)c(F)c(OC)c13)OCCCO2 [Compound 114, N-(6-((1H-Pyrazol-1-yl)methyl)-5-fluoro-4-methoxybenzo[d]isoxazol-3-yl)-7-methoxy-3,4-dihydro-2H-benzo[b][1,4]dioxepine-6-sulfonamide]
5040 | 7998 | 778 | 47500 | 0.363 | 14.3 | 0.408 | 109000 | 105 | 15.9 | 6.48 | 493 | 782 | 76 | 0.63 | COc1ccc2c(c1S(=O)(=O)Nc1noc3cc(Cn4cccn4)c(F)c(OC)c13)OCCCN2C [Compound 115, N-(6-((1H-Pyrazol-1-yl)methyl)-5-fluoro-4-methoxybenzo[d]isoxazol-3-yl)-8-methoxy-5-methyl-2,3,4,5-tetrahydrobenzo[b][1,4]oxazepine-9-sulfonamide]
